Source: patent US9801901B2, “Alginate oligomers for use in overcoming multidrug resistance in bacteria” (priority 2009, dated 2017)
In brackets after ≈: the same amount, converted by molar mass.

Experiments:
Assay in all cases: MIC-assay, Mueller-Hinton broth with G-block alginate, 384-well, OD600
[1] = tested on: Acinetobacter baumannii (MDR ACB, Libya, V4)
[2] = tested on: Acinetobacter lwoffii (6056, V22)
[3] = tested on: Burkholderia cepacia (LMG18941, ATCC-BAA-246)
[4] = tested on: Pseudomonas aeruginosa (MDR 301, PSA, V2)
[5] = Table 9, G-block (OligoCF-5/20) 0%
[6] = Table 9, G-block (OligoCF-5/20) 2%
[7] = Table 9, G-block (OligoCF-5/20) 6%
[8] = Table 9, G-block (OligoCF-5/20) 10%
[9] = ATCCBAA246|LMG18941, Table 8, G-block (OligoCF-5/20) 0%
[10] = ATCCBAA246|LMG18941, Table 8, G-block (OligoCF-5/20) 2%
[11] = ATCCBAA246|LMG18941, Table 8, G-block (OligoCF-5/20) 6%
[12] = ATCCBAA246|LMG18941, Table 8, G-block (OligoCF-5/20) 10%
[13] = Pseudomonas aeruginosa, Table 8, V2, G-block (OligoCF-5/20) 0%
[14] = Pseudomonas aeruginosa, Table 8, V2, G-block (OligoCF-5/20) 2%

Row | Compound | MIC [1, 5] | MIC [1, 6] | MIC [1, 7] | MIC [1, 8] | MIC [2, 5] | MIC [2, 6] | MIC [2, 7] | MIC [2, 8] | MIC [3, 9] | MIC [3, 10] | MIC [3, 11] | MIC [3, 12] | MIC [4, 13] | MIC [4, 14] | MIC ([4]; Pseudomonas aeruginosa, Table 8, V2, G-block (OligoCF-5/20) 6%) | MIC ([4]; Pseudomonas aeruginosa, Table 8, V2, G-block (OligoCF-5/20) 10%) | MIC ([4]; Pseudomonas aeruginosa) | MIC ([4]; Table 8, V2, G-block (OligoCF-5/20) 10%)
1 | CC[C@H]1OC(=O)[C@H](C)[C@@H](O[C@H]2C[C@@](C)(OC)[C@@H](O)[C@H](C)O2)[C@H](C)[C@@H](O[C@@H]2O[C@H](C)C[C@H](N(C)C)[C@H]2O)[C@](C)(O)C[C@@H](C)[C@@H]2N[C@@H](COCCOC)O[C@H]([C@H]2C)[C@]1(C)O [Dirithromycin] | 64 µg/mL (≈ 76.6 µM) | 8 µg/mL (≈ 9.58 µM) | 2 µg/mL (≈ 2.39 µM) | < 1 µg/mL | < 2 µg/mL | < 2 µg/mL | < 2 µg/mL | < 2 µg/mL | 512 µg/mL (≈ 613 µM) | 256 µg/mL (≈ 307 µM) | 256 µg/mL (≈ 307 µM) | 256 µg/mL (≈ 307 µM) | > 512 µg/mL | > 512 µg/mL | 512 µg/mL (≈ 613 µM) | 512 µg/mL (≈ 613 µM) |  | 
2 | C[C@@H](O)[C@H]1C(=O)N2C(C(=O)O)=C(SCCN=CN)C[C@H]12 [Imipenem] | 2 µg/mL (≈ 6.68 µM) | 2 µg/mL (≈ 6.68 µM) | 2 µg/mL (≈ 6.68 µM) | < 2 µg/mL | 2 µg/mL (≈ 6.68 µM) | 2 µg/mL (≈ 6.68 µM) | 2 µg/mL (≈ 6.68 µM) | < 2 µg/mL | > 16 µg/mL | > 16 µg/mL | > 16 µg/mL | > 16 µg/mL | 256 µg/mL (≈ 855 µM) | 256 µg/mL (≈ 855 µM) |  |  | 128 µg/mL (≈ 428 µM) | 128 µg/mL (≈ 428 µM)
